According to ChEMBL document CHEMBL5291721, “A preclinical secondary pharmacology resource illuminates target-adverse drug reaction associations of marketed drugs” (Nat Commun, 2023):

Assays:
[1] = target: T1, 5-hydroxytryptamine receptor 2C (Homo sapiens, UniProt P28335)
T1 sequence (P28335 whole entry): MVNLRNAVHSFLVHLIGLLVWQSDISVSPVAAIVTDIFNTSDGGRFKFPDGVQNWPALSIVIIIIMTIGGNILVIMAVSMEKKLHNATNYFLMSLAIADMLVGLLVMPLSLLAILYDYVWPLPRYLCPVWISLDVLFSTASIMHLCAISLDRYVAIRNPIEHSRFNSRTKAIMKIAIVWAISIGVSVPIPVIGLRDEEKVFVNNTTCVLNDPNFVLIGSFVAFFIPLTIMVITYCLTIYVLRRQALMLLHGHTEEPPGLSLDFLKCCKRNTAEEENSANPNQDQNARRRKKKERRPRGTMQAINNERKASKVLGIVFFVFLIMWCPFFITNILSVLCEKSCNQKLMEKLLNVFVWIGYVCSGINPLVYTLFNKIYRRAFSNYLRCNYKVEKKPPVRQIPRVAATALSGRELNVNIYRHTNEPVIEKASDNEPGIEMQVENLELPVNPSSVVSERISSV

[2] = target: Neuronal acetylcholine receptor subunit alpha-4 (Homo sapiens, UniProt P43681)
Neuronal acetylcholine receptor subunit alpha-4, sequence (P43681 whole entry): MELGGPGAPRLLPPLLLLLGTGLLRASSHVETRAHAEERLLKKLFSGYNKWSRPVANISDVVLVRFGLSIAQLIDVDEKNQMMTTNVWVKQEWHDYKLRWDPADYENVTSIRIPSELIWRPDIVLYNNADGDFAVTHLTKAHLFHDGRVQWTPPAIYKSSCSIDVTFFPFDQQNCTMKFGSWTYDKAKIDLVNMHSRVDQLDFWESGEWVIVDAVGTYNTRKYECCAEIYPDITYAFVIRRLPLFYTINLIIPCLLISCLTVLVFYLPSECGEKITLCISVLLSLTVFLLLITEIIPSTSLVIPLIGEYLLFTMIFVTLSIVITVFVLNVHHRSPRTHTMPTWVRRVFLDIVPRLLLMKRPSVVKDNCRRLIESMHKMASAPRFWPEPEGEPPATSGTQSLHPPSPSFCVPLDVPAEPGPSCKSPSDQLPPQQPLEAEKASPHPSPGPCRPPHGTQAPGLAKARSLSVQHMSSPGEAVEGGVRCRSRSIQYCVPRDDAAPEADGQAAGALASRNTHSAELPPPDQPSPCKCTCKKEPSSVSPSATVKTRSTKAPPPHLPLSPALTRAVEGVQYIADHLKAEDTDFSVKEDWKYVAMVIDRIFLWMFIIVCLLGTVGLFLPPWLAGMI

Adenosine receptor A1 = target: T2, Adenosine receptor A1 (Homo sapiens, UniProt P30542)
T2 sequence (P30542 whole entry): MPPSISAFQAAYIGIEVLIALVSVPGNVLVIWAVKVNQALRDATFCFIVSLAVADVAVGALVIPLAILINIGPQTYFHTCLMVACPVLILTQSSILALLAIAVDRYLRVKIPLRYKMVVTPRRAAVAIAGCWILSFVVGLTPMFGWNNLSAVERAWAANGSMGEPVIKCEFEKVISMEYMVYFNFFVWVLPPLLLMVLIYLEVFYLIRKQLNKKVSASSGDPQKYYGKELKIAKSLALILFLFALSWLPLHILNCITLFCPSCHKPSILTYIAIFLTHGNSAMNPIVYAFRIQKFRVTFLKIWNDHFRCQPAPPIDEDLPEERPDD

[3] = target: Voltage-gated inwardly rectifying potassium channel KCNH2 (Homo sapiens, UniProt Q12809); assay type: functional; conditions: read-out: AC50
Voltage-gated inwardly rectifying potassium channel KCNH2, sequence (Q12809 whole entry): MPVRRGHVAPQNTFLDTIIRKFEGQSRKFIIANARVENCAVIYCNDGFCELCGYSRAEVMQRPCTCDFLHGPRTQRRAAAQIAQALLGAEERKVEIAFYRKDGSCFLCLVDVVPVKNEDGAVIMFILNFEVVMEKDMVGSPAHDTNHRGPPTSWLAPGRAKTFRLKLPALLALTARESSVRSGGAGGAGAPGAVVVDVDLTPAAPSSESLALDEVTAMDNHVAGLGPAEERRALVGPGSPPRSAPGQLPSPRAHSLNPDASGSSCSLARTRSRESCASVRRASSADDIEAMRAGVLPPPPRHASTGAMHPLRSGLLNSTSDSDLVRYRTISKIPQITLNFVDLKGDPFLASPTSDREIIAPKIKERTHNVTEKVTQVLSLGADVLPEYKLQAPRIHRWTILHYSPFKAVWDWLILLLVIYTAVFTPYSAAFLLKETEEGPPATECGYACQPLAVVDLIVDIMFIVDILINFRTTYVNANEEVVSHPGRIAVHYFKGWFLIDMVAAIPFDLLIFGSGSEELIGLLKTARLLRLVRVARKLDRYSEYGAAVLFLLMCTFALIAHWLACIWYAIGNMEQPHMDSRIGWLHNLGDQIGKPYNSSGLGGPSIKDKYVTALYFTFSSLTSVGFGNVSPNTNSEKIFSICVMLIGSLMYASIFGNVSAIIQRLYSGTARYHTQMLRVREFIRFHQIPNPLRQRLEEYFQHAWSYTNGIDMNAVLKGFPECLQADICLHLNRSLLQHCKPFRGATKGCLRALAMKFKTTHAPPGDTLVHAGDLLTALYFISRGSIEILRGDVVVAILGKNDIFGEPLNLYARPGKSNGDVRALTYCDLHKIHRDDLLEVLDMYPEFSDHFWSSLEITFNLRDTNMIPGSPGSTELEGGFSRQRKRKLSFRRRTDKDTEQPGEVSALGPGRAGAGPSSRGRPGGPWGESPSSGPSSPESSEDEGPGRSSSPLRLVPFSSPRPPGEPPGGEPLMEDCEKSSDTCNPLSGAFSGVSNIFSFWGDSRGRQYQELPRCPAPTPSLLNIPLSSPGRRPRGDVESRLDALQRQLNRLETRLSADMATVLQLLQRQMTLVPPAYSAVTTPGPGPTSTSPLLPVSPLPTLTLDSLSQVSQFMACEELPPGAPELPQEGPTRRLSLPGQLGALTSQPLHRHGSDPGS

[4] = target: T3, 5-hydroxytryptamine receptor 1A (Homo sapiens, UniProt P08908); assay type: functional, cell-based
T3 sequence (P08908 whole entry): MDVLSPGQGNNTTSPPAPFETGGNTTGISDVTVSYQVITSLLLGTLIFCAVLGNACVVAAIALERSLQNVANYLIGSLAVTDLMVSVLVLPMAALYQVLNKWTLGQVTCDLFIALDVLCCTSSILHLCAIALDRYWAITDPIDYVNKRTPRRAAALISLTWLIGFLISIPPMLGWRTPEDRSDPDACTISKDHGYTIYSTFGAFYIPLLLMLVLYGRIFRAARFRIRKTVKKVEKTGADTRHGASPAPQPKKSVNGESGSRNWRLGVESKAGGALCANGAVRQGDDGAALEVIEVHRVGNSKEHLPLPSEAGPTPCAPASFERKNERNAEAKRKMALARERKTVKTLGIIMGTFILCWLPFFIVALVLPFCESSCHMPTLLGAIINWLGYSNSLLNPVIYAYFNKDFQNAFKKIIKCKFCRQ

[5] = target: T4, Alpha-2A adrenergic receptor (Homo sapiens, UniProt P08913); assay type: functional, cell-based
T4 sequence (P08913 whole entry): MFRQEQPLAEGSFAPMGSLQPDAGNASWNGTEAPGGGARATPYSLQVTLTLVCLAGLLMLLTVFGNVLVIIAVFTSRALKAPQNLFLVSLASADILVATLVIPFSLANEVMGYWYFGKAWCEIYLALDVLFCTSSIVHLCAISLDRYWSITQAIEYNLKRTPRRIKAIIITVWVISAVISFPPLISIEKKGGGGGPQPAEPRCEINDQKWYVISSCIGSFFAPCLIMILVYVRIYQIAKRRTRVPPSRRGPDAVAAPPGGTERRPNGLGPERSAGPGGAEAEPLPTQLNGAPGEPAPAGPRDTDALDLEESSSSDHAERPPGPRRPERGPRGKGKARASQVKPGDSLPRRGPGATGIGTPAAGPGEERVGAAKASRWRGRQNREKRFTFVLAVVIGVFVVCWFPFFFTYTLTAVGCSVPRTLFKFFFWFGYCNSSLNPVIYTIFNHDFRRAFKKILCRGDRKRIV

Adenosine receptor A2a = Adenosine receptor A2a (Homo sapiens, UniProt P29274)
Adenosine receptor A2a, sequence (P29274 whole entry): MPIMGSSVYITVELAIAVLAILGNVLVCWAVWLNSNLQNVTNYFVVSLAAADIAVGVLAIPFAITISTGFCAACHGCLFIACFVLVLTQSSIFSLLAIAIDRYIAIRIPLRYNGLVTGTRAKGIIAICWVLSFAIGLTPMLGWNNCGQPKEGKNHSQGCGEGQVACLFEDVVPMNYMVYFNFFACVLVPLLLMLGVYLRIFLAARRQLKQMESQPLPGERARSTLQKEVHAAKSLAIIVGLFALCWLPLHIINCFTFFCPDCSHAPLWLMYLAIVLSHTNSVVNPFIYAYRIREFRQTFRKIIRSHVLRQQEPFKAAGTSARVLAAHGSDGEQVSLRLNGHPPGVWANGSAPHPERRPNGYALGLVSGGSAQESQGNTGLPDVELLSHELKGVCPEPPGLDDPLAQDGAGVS

[6] = target: T5, Alpha-2C adrenergic receptor (Homo sapiens, UniProt P18825); assay type: functional
T5 sequence (P18825 whole entry): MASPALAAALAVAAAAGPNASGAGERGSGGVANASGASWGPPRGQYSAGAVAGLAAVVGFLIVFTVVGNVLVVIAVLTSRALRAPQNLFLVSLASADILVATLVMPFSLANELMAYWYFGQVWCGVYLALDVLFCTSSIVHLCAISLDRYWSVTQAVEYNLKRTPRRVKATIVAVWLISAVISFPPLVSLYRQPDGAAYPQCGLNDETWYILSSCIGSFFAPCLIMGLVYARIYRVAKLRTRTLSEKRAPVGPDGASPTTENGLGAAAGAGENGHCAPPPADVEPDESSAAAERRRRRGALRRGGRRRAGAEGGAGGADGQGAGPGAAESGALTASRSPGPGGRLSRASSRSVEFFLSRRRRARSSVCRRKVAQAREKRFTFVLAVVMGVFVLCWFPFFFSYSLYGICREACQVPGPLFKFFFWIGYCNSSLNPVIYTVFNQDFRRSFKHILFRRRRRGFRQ

[7] = target: 5-hydroxytryptamine receptor 2B (Homo sapiens, UniProt P41595); assay type: functional, cell-based
5-hydroxytryptamine receptor 2B, sequence (P41595 whole entry): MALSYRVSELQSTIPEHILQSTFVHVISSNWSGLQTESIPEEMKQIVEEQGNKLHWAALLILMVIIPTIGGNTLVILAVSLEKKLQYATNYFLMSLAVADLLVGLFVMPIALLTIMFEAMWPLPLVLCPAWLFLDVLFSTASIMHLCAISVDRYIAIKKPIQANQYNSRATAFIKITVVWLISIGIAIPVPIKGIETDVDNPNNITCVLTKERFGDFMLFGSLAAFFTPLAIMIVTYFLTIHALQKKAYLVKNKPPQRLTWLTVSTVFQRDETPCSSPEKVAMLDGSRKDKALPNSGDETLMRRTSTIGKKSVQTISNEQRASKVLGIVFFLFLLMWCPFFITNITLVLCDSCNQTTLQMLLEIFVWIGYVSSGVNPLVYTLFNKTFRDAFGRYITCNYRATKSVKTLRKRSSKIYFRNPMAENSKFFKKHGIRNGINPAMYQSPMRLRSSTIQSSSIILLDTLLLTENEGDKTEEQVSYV

[8] = target: Sodium-dependent noradrenaline transporter (Homo sapiens, UniProt P23975)
Sodium-dependent noradrenaline transporter, sequence (P23975 whole entry): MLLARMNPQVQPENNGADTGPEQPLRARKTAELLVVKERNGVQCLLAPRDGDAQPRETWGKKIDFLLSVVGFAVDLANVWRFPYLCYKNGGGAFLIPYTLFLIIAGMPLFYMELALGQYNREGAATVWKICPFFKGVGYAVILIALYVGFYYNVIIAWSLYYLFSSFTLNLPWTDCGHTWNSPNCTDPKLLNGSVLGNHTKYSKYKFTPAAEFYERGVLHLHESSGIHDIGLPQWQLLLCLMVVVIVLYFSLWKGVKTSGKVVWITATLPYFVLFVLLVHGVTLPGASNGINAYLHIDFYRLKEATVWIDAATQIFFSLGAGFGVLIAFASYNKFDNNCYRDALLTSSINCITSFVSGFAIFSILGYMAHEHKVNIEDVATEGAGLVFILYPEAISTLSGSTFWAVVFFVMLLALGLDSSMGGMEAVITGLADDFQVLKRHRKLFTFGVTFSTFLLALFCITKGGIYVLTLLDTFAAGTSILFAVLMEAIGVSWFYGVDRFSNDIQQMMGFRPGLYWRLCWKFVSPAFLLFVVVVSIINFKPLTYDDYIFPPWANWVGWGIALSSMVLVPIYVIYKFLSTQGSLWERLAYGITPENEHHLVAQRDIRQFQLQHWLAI
Also: assay procedure not described here.

| AC50 [1] [µM] | AC50 [2] [µM] | AC50 (Adenosine receptor A1) [µM] | AC50 [4] [µM] | AC50 [5] [µM] | AC50 (Adenosine receptor A2a) [µM] | AC50 [6] [µM] | AC50 [7] [µM] | AC50 [8] [µM] | Structure (SMILES) | AC50 [3] [µM] |
| --- | --- | --- | --- | --- | --- | --- | --- | --- | --- | --- |
| 27 | > 30 | > 30 | > 30 | > 30 | > 30 | 21.5 | > 30 | > 30 | CCN(CC)CCn1c(=O)c(Cc2ccc(OC)cc2)nc2ccccc21 [CAROVERINE] | 0.16 |
| > 30 | > 30 | > 30 | > 30 | > 30 | > 30 | > 30 | > 30 | > 30 | N[C@@H](Cc1cc(I)c(Oc2cc(I)c(O)c(I)c2)c(I)c1)C(=O)O [LEVOTHYROXINE] | > 30 |
| > 30 | > 30 | > 30 | > 30 | > 30 | > 30 | > 30 | > 30 | > 30 | CCOCC(O)COc1ccc(NC(=O)CC[S+](C)C)cc1 (stereo not drawn) | > 30 |
| > 30 | > 30 | > 30 | 25 | > 30 | > 30 | > 30 | > 30 | > 30 | CN(C)CCc1c[nH]c2ccc(CS(=O)(=O)N3CCCC3)cc12 [ALMOTRIPTAN] | 15 |
| > 30 | > 10 | > 10 | > 10 | > 10 | > 10 | > 10 | > 10 | 20.4 | NCCCCCC(=O)O [AMINOCAPROIC ACID] | > 30 |
| > 30 | > 10 | > 30 | > 10 | > 10 | > 30 | > 10 | > 10 | > 30 | C=CC1=C(C(=O)O)N2C(=O)[C@@H](NC(=O)/C(=N\O)c3csc(N)n3)[C@H]2SC1 | > 30 |
| > 30 | > 30 | > 30 | > 30 | > 30 | > 30 | > 30 | > 30 | > 30 | O=C(O)[C@H]1/C(=C/CO)O[C@@H]2CC(=O)N21 [CLAVULANIC ACID] | > 30 |
| > 30 | > 30 | > 30 | > 30 | > 30 | > 30 | > 30 | > 10 | > 30 | CC(C)(CO)c1cc2cc(NC(=O)C3(c4ccc5c(c4)OC(F)(F)O5)CC3)c(F)cc2n1C[C@@H](O)CO [TEZACAFTOR] | > 30 |
| > 30 | > 10 | > 30 | > 10 | > 10 | > 30 | > 10 | > 10 | > 30 | C[C@]12CCC(=O)C=C1CC[C@H]1[C@@H]3CC[C@](O)(C(=O)CO)[C@@]3(C)C[C@H](O)[C@@]12F [FLUDROCORTISONE] | > 30 |
| > 30 | > 10 | > 30 | > 30 | > 10 | > 30 | > 10 | > 10 | > 30 | C[C@H](CS)C(=O)N1CCC[C@H]1C(=O)O [CAPTOPRIL] |  |
| > 30 | > 10 | > 30 | > 10 | > 10 | > 30 | > 10 | > 10 | > 10 | Nc1nnc(-c2cccc(Cl)c2Cl)c(N)n1 [LAMOTRIGINE] |  |
| > 30 | > 10 | > 30 | > 10 | > 10 | > 30 | 2.3 | 2.2 | > 10 | OCCOCCN1CCN(C(c2ccccc2)c2ccc(Cl)cc2)CC1 (stereo not drawn) [HYDROXYZINE] |  |

| Structure (SMILES) | AC50 [1] [µM] | AC50 [2] [µM] | AC50 (Adenosine receptor A1) [µM] | AC50 [4] [µM] | AC50 [5] [µM] | AC50 (Adenosine receptor A2a) [µM] | AC50 [6] [µM] | AC50 [7] [µM] | AC50 [8] [µM] | AC50 [3] [µM] |
| --- | --- | --- | --- | --- | --- | --- | --- | --- | --- | --- |
| NCCCNCCSP(=O)(O)O [AMIFOSTINE] | > 30 | > 30 | > 30 | > 30 | > 30 | > 30 | > 30 | > 30 | > 30 | > 30 |
| CC[N+](CC)(CCNC(=O)C(=O)NCC[N+](CC)(CC)Cc1ccccc1Cl)Cc1ccccc1Cl [AMBENONIUM] | > 30 | > 30 | > 30 | > 30 | > 30 | > 30 | 2.5 | > 30 | 10 | 7.8 |
| CCC[C@@]1(CCc2ccccc2)CC(O)=C([C@H](CC)c2cccc(NS(=O)(=O)c3ccc(C(F)(F)F)cn3)c2)C(=O)O1 | > 30 | > 30 | > 30 | > 30 | 8.6 | > 30 | 25 | 7.5 | > 30 |  |
| CN(C)CCN(Cc1ccccc1)c1ccccn1 [TRIPELENNAMINE] | > 10 | > 10 | > 10 | > 10 | > 10 | > 10 | 9.4 | > 10 | 13.4 | 2.8 |
| C[C@H](Nc1ncnc2[nH]cnc12)c1cc2cccc(Cl)c2c(=O)n1-c1ccccc1 [DUVELISIB] | > 30 | > 30 | > 30 | > 30 | > 30 | > 30 | > 30 | > 30 | > 30 |  |
| Cn1cnc2c(F)c(Nc3ccc(Br)cc3F)c(C(=O)NOCCO)cc21 [BINIMETINIB] | > 30 | > 30 | > 30 | > 30 | > 30 | > 30 | > 30 | > 30 | > 30 |  |
| CO[C@@H]1[C@@H](OC(N)=O)[C@@H](O)[C@H](Oc2ccc3c(O)c(NC(=O)c4ccc(O)c(CC=C(C)C)c4)c(=O)oc3c2C)OC1(C)C [NOVOBIOCIN] | > 30 | > 30 | > 30 | > 30 | > 30 | > 30 | > 30 | > 30 | > 30 |  |
